# Legend:
# MCF-7 xenograft tumors = assay: growth of MCF-7 xenograft tumors; type: in vivo; details: 10 mg/kg IP daily, compared to vehicle-treated mice
# Description: Expression of GLUT1 and PGK1 serves as markers of aggressive biological behavior and identifies a worse prognosis in breast cancer patients.
# [1] = target: MDM2/MDMX-mediated p53 ubiquitination (Homo sapiens, UniProt O15151+Q00987); assay: cell-free assay with purified proteins, p53 ubiquitination; type: biochemical
# EZH2 [2] = assay: immunostaining of EZH2 and H3K27me3 in renewable tissues; type: in vivo, mice; details: thymus, spleen and duodenum, 4 mg/kg, 19 hours
# Protocol: (§1) Half-life of EZH2 was measured in splenocytes isolated from wildtype mouse that had been pretreated with 2 μg/ml of Compound 1 for 24 hours followed by 100 μg/ml cycloheximide (CHX). […] To further confirm the effect of Compound 1 on EZH2 and H3K27me3, thymocytes isolated from wildtype mice were treated with 0, 0.5, 1, 3 or 5 μg/ml of Compound 1 for 12 hours. […] Furthermore, to validate the effect of Compound 1 on EZH2 and H3K27me3 in renewable tissues, wildtype mice were treated with 0 or 4 mg/kg of Compound 1 for 19 hours.
# MDM2/MDMX complex [3] = target: T1, MDM2/MDMX complex (Homo sapiens, UniProt O15151+Q00987); assay: cell-based mammalian two-hybrid assay
# T1 construct: expressed in transfected cells
# T1 sequence (Q00987 whole entry): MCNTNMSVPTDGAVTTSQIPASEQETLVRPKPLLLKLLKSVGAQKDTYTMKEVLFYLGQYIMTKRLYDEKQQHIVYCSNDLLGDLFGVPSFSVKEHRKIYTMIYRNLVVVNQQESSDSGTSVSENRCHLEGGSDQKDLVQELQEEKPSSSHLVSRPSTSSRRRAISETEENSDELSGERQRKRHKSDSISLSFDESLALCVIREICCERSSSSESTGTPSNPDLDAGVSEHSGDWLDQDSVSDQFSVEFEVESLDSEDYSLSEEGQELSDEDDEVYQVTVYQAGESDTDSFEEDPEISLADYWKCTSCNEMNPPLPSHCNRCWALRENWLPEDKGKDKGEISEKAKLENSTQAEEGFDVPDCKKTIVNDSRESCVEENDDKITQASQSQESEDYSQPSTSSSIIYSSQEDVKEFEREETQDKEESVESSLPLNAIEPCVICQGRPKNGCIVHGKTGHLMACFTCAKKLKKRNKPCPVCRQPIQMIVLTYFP
# T1 sequence (O15151 whole entry): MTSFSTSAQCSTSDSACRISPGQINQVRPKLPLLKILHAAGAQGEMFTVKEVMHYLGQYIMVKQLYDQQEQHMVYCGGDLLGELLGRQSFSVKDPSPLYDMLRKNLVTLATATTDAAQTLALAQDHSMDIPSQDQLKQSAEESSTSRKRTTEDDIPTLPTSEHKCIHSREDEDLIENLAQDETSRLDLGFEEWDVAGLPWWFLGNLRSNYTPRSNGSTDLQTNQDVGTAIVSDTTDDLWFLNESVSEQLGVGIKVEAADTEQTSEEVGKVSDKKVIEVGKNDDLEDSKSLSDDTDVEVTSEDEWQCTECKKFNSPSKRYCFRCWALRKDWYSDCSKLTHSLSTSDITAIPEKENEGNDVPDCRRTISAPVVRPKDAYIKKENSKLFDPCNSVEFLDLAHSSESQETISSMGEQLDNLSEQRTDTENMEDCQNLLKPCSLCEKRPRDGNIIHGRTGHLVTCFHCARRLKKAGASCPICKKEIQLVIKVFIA
# HIF1 = assay: RT-qPCR of ALDHA in MCF-7 cells (marker of HIF1 activity); type: cell-based, human; details: MCF-7, 0-100 μg/ml
# Description: The expression level of ALDHA was used as surrogate marker to assess the activity of HIF1.
# MDM2/MDMX complex [4] = target: T2, MDM2/MDMX complex (Mus musculus, UniProt O35618+P23804); assay: immunoprecipitation with anti-Mdmx antibody and immunoblot in splenocytes; type: cell-based; details: splenocytes from wild-type mice, 2 or 5 μg/ml, 24 hour
# T2 construct: endogenous in cells; host or cells: primary splenocytes from wild-type mice
# T2 sequence (P23804 whole entry): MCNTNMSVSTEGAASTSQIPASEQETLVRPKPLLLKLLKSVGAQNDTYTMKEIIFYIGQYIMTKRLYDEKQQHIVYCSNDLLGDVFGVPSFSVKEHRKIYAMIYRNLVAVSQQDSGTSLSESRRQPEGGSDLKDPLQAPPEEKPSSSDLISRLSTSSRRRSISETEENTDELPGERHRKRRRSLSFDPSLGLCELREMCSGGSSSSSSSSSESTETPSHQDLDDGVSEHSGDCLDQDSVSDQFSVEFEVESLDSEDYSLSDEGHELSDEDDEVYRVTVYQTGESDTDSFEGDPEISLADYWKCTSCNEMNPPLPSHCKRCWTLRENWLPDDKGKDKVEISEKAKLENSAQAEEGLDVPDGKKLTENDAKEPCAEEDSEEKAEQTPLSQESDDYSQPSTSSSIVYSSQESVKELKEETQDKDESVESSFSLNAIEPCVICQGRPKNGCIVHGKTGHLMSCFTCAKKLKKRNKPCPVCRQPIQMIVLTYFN
# T2 sequence (O35618 whole entry): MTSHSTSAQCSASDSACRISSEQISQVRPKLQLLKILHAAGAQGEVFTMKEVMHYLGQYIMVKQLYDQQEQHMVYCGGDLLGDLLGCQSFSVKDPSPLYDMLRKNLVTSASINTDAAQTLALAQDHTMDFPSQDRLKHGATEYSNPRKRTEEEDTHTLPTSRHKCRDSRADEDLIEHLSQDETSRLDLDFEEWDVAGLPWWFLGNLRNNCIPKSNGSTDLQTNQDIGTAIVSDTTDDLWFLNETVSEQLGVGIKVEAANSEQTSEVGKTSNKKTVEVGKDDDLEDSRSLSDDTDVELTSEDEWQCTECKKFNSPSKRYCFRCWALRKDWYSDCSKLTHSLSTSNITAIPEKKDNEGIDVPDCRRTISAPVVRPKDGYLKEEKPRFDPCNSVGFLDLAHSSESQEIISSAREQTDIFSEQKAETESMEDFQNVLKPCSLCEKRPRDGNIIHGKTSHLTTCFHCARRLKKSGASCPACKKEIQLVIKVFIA
# Protocol: A small molecule compound, referred to herein as Compound 1 was used to dissociate and reduce the MDM2/MDMX complex, and preserve p53. […] To further verify this finding, splenocytes from wild-type mice were treated with 2 or 5 μg/ml of Compound 1, or vehicle for 24 hour.
# EZH2 [5] = assay: half-life of EZH2 in splenocytes with cycloheximide; type: cell-based, mouse; details: 2 μg/ml 24 hours, then 100 μg/ml cycloheximide
# Protocol: as §1
# [6] = tested on: human breast cancer cells MCF-7; assay: MCF-7 cell proliferation; type: cell-based; details: MCF-7, 10 μM
# Protocol: To assess the impact of Compound 1 on cell proliferation, human breast cancer cells MCF-7 were treated with 10 μM of Compound 1.
# thymocytes = assay: IR-induced killing of thymocytes, cell count; type: cell-based, mice
# Protocol: Thymocytes isolated from wildtype mice were treated with 2 μg/ml of Compound 1 for 24 hours, in absence or presence of 2 μM GSK126, followed by 0 Gy or 5 Gy IR. Cell numbers were counted 48 hours after IR to assess the effect of Compound 1 and EZH2 inhibition on IR-induced killing.
# [7] = tested on: thymus, spleen and duodenum; assay: TUNEL analysis of IR- and doxorubicin-induced apoptosis in renewable tissues; type: in vivo, wild-type mice
# Protocol: To assess the protective effects of Compound 1 on renewable tissues, wild-type mice were injected with Compound 1 at a dose of 4 mg/kg IP for 19 hours before 4 Gy ionizing radiation (IR) or exposure to doxorubicin (20 mg/kg).
# EZH2 [8] = assay: Western blot of EZH2 and H3K27me3 in thymocytes; type: cell-based, mice; details: thymocytes, 0.5, 1, 3 or 5 μg/ml, 12 hours
# Protocol: as §1
# p53 = assay: RT-qPCR of CDKN1A/p21 in MCF-7 cells (marker of p53 activity); type: cell-based, human; details: MCF-7, 0-100 μg/ml
# Protocol: (§2) To assess the impact of Compound 1 and preserved p53 on apoptosis, human breast cancer cells MCF-7 were treated with increasing doses (0-100 μg/ml) of Compound 1. […] The expression level of the pro-apoptotic gene p21 was used as surrogate marker to assess the activity of p53. […] C57BL/6 mice were treated with, PBS, Nutlin 3A (200 mg/kg) or Compound 1 (200 mg/kg). The mice were sacrificed 24 hours later, and caspase-3 expression was assessed in thymus, a tissue very sensitive to p53-induced apoptosis.
# MCF-7 tumor xenografts = assay: immunohistochemical analysis of MCF-7 tumor xenografts; type: in vivo; details: 10 mg/kg IP daily, relative to vehicle-treated mice
# [9] = tested on: thymus, spleen and duodenum; assay: TUNEL analysis of IR- and doxorubicin-induced apoptosis in renewable tissues; type: in vivo, wild-type mice; details: doxorubicin 20 mg/kg alone (Compound 1 0 mg/kg)
# thymus = assay: acute toxicity experiment, caspase-3 in thymus; details: 200 mg/kg, 24 hours
# Protocol: as §2
# MDM2/MDMX-mediated p53 ubiquitination, sequence (Q00987 whole entry): as the sequence (Q00987 whole entry) above
# MDM2/MDMX-mediated p53 ubiquitination, sequence (O15151 whole entry): as the sequence (O15151 whole entry) above
compound,measurement,setting,value
COC(=O)C1(Cc2ccc(C)c(C/C=C(/C)Cl)c2)OC(=O)C(O)C1c1ccc(O)cc1 (stereo not drawn) [Compound 1],tumor growth,MCF-7 xenograft tumors,significant growth delay
same,MDM2/MDMX-mediated p53 ubiquitination and degradation,[1],blocking MDM2/MDMX-mediated p53 ubiquitination and degradation
same,EZH2 immunostaining,EZH2 [2],induction
same,H3K27me3 immunostaining,EZH2 [2],induction
same,disassociation of the MDM2/MDMX complex,MDM2/MDMX complex [3],dose-dependent disassociation
same,mRNA level of ALDHA,HIF1,significant decrease
same,disassociation of the MDM2/MDMX complex,MDM2/MDMX complex [4],disassociation
same,half-life of EZH2,EZH2 [5],prolonged half-life
same,cell proliferation,[6],considerable reduction in cell proliferation
same,IR-induced cell death,"thymocytes; 2 μg/ml 24 hours, 5 Gy IR, counted 48 hours after IR",significantly attenuated
same,TUNEL apoptosis,"[7]; Duodenum, 4 Gy IR, Compound 1 4 mg/kg IP 19 hours before",1 ± 0.3%
same,TUNEL apoptosis,"[7]; Duodenum, Control (no IR or doxorubicin), Compound 1 4 mg/kg IP",0%
same,TUNEL apoptosis,"[7]; Duodenum, doxorubicin 20 mg/kg, Compound 1 4 mg/kg IP 19 hours before",3 ± 0.1%
same,TUNEL apoptosis,"[7]; Spleen, 4 Gy IR, Compound 1 4 mg/kg IP 19 hours before",7 ± 0.2%
same,TUNEL apoptosis,"[7]; Spleen, Control (no IR or doxorubicin), Compound 1 4 mg/kg IP",0%
same,TUNEL apoptosis,"[7]; Spleen, doxorubicin 20 mg/kg, Compound 1 4 mg/kg IP 19 hours before",1 ± 0.1%
same,TUNEL apoptosis,"[7]; Thymus, 4 Gy IR, Compound 1 4 mg/kg IP 19 hours before",22 ± 4%
same,TUNEL apoptosis,"[7]; Thymus, Control (no IR or doxorubicin), Compound 1 4 mg/kg IP",0%
same,TUNEL apoptosis,"[7]; Thymus, doxorubicin 20 mg/kg, Compound 1 4 mg/kg IP 19 hours before",1 ± 0.2%
same,level of EZH2,EZH2 [8],significantly induced levels
same,level of H3K27me3,EZH2 [8],significantly induced levels
same,mRNA level of p21,p53,little induction
same,expression of PUMA in tumors,MCF-7 tumor xenografts,little to no change
same,expression of p21 in tumors,MCF-7 tumor xenografts,little to no change
same,glycolytic marker GLUT1 in tumors,MCF-7 tumor xenografts,lower level
same,glycolytic marker PGK1 in tumors,MCF-7 tumor xenografts,lower level
same,p53 level in tumors,MCF-7 tumor xenografts,readily detectable levels of p53
same,proliferation marker Ki-67 in tumors,MCF-7 tumor xenografts,lower level
"COc1cccc2c1C(=O)c1c(O)c3c(c(O)c1C2=O)C[C@@](O)(C(=O)CO)C[C@@H]3O[C@H]1C[C@H](N)[C@H](O)[C@H](C)O1 [Doxorubicin, doxorubicin]",TUNEL apoptosis,[9]; Duodenum,15 ± 1.1%
same,TUNEL apoptosis,[9]; Spleen,22 ± 0.2%
same,TUNEL apoptosis,[9]; Thymus,15 ± 0.1%
"CC[C@H](C)n1cc(C)c2c(C(=O)NCc3c(C)cc(C)[nH]c3=O)cc(-c3ccc(N4CCNCC4)nc3)cc21 [GSK126, reference compound]",protective effect of Compound 1 against IR-induced cell death,"thymocytes; 2 μM GSK126 with 2 μg/ml Compound 1, 5 Gy IR",reversed
COc1ccc(C2=N[C@@H](c3ccc(Cl)cc3)[C@@H](c3ccc(Cl)cc3)N2C(=O)N2CCNC(=O)C2)c(OC(C)C)c1 [Nutlin 3A],caspase-3 activation (apoptosis) in thymus,thymus,considerable apoptosis
